{"source": "the NIST ThermoML archive (doi:10.1016/j.jct.2018.03.016)", "conditions": "Liquid; for speed of sound: Frequency=5 MHz, Single path-length method; for mass density: Vibrating tube method", "note": "Numbers after ± are expanded uncertainties."}
{"smiles": "CCC(=O)[O-].[NH3+]CCO", "note": "[2-hydroxyethan-1-aminium propionate]", "values": [{"measurement": "speed of sound", "setting": "323.15 K, 14000 kPa", "result": "1562.3 ± 3.8", "unit": "m/s"}, {"measurement": "speed of sound", "setting": "323.15 K, 15000 kPa", "result": "1566.3 ± 3.8", "unit": "m/s"}, {"measurement": "speed of sound", "setting": "323.15 K, 16000 kPa", "result": "1568.9 ± 3.8", "unit": "m/s"}, {"measurement": "speed of sound", "setting": "323.15 K, 17000 kPa", "result": "1572.9 ± 3.8", "unit": "m/s"}, {"measurement": "speed of sound", "setting": "323.15 K, 18000 kPa", "result": "1576.9 ± 3.8", "unit": "m/s"}, {"measurement": "speed of sound", "setting": "323.15 K, 19000 kPa", "result": "1581 ± 3.8", "unit": "m/s"}, {"measurement": "speed of sound", "setting": "323.15 K, 20000 kPa", "result": "1585 ± 3.8", "unit": "m/s"}, {"measurement": "mass density", "setting": "333.08 K, 35000 kPa", "result": "1096.1 ± 1.4", "unit": "kg/m3"}, {"measurement": "mass density", "setting": "333.09 K, 10000 kPa", "result": "1084.9 ± 1.3", "unit": "kg/m3"}, {"measurement": "mass density", "setting": "333.09 K, 15000 kPa", "result": "1087.4 ± 1.3", "unit": "kg/m3"}, {"measurement": "mass density", "setting": "333.09 K, 25000 kPa", "result": "1091.8 ± 1.4", "unit": "kg/m3"}, {"measurement": "mass density", "setting": "333.09 K, 30000 kPa", "result": "1093.9 ± 1.4", "unit": "kg/m3"}, {"measurement": "mass density", "setting": "333.1 K, 20000 kPa", "result": "1089.7 ± 1.3", "unit": "kg/m3"}, {"measurement": "mass density", "setting": "333.12 K, 100 kPa", "result": "1079.6 ± 1.3", "unit": "kg/m3"}, {"measurement": "speed of sound", "setting": "333.15 K, 100 kPa", "result": "1474.9 ± 3.8", "unit": "m/s"}, {"measurement": "speed of sound", "setting": "333.15 K, 1000 kPa", "result": "1479.7 ± 3.8", "unit": "m/s"}, {"measurement": "speed of sound", "setting": "333.15 K, 2000 kPa", "result": "1484.6 ± 3.8", "unit": "m/s"}, {"measurement": "speed of sound", "setting": "333.15 K, 3000 kPa", "result": "1488.3 ± 3.8", "unit": "m/s"}, {"measurement": "speed of sound", "setting": "333.15 K, 4000 kPa", "result": "1493.2 ± 3.8", "unit": "m/s"}, {"measurement": "speed of sound", "setting": "333.15 K, 5000 kPa", "result": "1497 ± 3.8", "unit": "m/s"}, {"measurement": "speed of sound", "setting": "333.15 K, 6000 kPa", "result": "1501.9 ± 3.8", "unit": "m/s"}, {"measurement": "speed of sound", "setting": "333.15 K, 7000 kPa", "result": "1505.7 ± 3.8", "unit": "m/s"}, {"measurement": "speed of sound", "setting": "333.15 K, 8000 kPa", "result": "1509.5 ± 3.8", "unit": "m/s"}, {"measurement": "speed of sound", "setting": "333.15 K, 9000 kPa", "result": "1514.5 ± 3.8", "unit": "m/s"}, {"measurement": "speed of sound", "setting": "333.15 K, 10000 kPa", "result": "1518.3 ± 3.8", "unit": "m/s"}, {"measurement": "speed of sound", "setting": "333.15 K, 11000 kPa", "result": "1523.3 ± 3.8", "unit": "m/s"}, {"measurement": "speed of sound", "setting": "333.15 K, 12000 kPa", "result": "1527.2 ± 3.8", "unit": "m/s"}, {"measurement": "speed of sound", "setting": "333.15 K, 13000 kPa", "result": "1531 ± 3.8", "unit": "m/s"}, {"measurement": "speed of sound", "setting": "333.15 K, 14000 kPa", "result": "1534.9 ± 3.8", "unit": "m/s"}, {"measurement": "speed of sound", "setting": "333.15 K, 15000 kPa", "result": "1540 ± 3.8", "unit": "m/s"}, {"measurement": "speed of sound", "setting": "333.15 K, 16000 kPa", "result": "1543.8 ± 3.8", "unit": "m/s"}, {"measurement": "speed of sound", "setting": "333.15 K, 17000 kPa", "result": "1547.7 ± 3.8", "unit": "m/s"}, {"measurement": "speed of sound", "setting": "333.15 K, 18000 kPa", "result": "1551.6 ± 3.8", "unit": "m/s"}, {"measurement": "speed of sound", "setting": "333.15 K, 19000 kPa", "result": "1555.5 ± 3.8", "unit": "m/s"}, {"measurement": "speed of sound", "setting": "333.15 K, 20000 kPa", "result": "1559.5 ± 3.8", "unit": "m/s"}, {"measurement": "speed of sound", "setting": "343.15 K, 100 kPa", "result": "1449.3 ± 3.8", "unit": "m/s"}, {"measurement": "speed of sound", "setting": "343.15 K, 1000 kPa", "result": "1453 ± 3.8", "unit": "m/s"}, {"measurement": "speed of sound", "setting": "343.15 K, 2000 kPa", "result": "1456.8 ± 3.8", "unit": "m/s"}, {"measurement": "speed of sound", "setting": "343.15 K, 3000 kPa", "result": "1461.8 ± 3.8", "unit": "m/s"}, {"measurement": "speed of sound", "setting": "343.15 K, 4000 kPa", "result": "1466.7 ± 3.8", "unit": "m/s"}, {"measurement": "speed of sound", "setting": "343.15 K, 5000 kPa", "result": "1471.7 ± 3.8", "unit": "m/s"}, {"measurement": "speed of sound", "setting": "343.15 K, 6000 kPa", "result": "1475.5 ± 3.8", "unit": "m/s"}, {"measurement": "speed of sound", "setting": "343.15 K, 7000 kPa", "result": "1480.5 ± 3.8", "unit": "m/s"}, {"measurement": "speed of sound", "setting": "343.15 K, 8000 kPa", "result": "1485.5 ± 3.8", "unit": "m/s"}, {"measurement": "speed of sound", "setting": "343.15 K, 9000 kPa", "result": "1489.3 ± 3.8", "unit": "m/s"}, {"measurement": "speed of sound", "setting": "343.15 K, 10000 kPa", "result": "1494.3 ± 3.8", "unit": "m/s"}, {"measurement": "speed of sound", "setting": "343.15 K, 11000 kPa", "result": "1499.4 ± 3.8", "unit": "m/s"}, {"measurement": "speed of sound", "setting": "343.15 K, 12000 kPa", "result": "1503.2 ± 3.8", "unit": "m/s"}, {"measurement": "speed of sound", "setting": "343.15 K, 13000 kPa", "result": "1508.2 ± 3.8", "unit": "m/s"}, {"measurement": "speed of sound", "setting": "343.15 K, 14000 kPa", "result": "1513.3 ± 3.8", "unit": "m/s"}, {"measurement": "speed of sound", "setting": "343.15 K, 15000 kPa", "result": "1517.2 ± 3.8", "unit": "m/s"}, {"measurement": "speed of sound", "setting": "343.15 K, 16000 kPa", "result": "1522.2 ± 3.8", "unit": "m/s"}, {"measurement": "speed of sound", "setting": "343.15 K, 17000 kPa", "result": "1526.1 ± 3.8", "unit": "m/s"}, {"measurement": "speed of sound", "setting": "343.15 K, 18000 kPa", "result": "1530 ± 3.8", "unit": "m/s"}, {"measurement": "speed of sound", "setting": "343.15 K, 19000 kPa", "result": "1533.8 ± 3.8", "unit": "m/s"}, {"measurement": "speed of sound", "setting": "343.15 K, 20000 kPa", "result": "1537.7 ± 3.8", "unit": "m/s"}, {"measurement": "mass density", "setting": "343.17 K, 100 kPa", "result": "1066 ± 1.3", "unit": "kg/m3"}, {"measurement": "mass density", "setting": "343.17 K, 20000 kPa", "result": "1076.6 ± 1.3", "unit": "kg/m3"}, {"measurement": "mass density", "setting": "343.17 K, 25000 kPa", "result": "1079 ± 1.3", "unit": "kg/m3"}, {"measurement": "mass density", "setting": "343.17 K, 30000 kPa", "result": "1081.8 ± 1.4", "unit": "kg/m3"}, {"measurement": "mass density", "setting": "343.18 K, 15000 kPa", "result": "1074.3 ± 1.3", "unit": "kg/m3"}, {"measurement": "mass density", "setting": "343.18 K, 35000 kPa", "result": "1084.1 ± 1.4", "unit": "kg/m3"}, {"measurement": "mass density", "setting": "343.19 K, 10000 kPa", "result": "1070.6 ± 1.3", "unit": "kg/m3"}, {"measurement": "speed of sound", "setting": "353.15 K, 100 kPa", "result": "1416 ± 3.8", "unit": "m/s"}, {"measurement": "speed of sound", "setting": "353.15 K, 1000 kPa", "result": "1421 ± 3.8", "unit": "m/s"}, {"measurement": "speed of sound", "setting": "353.15 K, 2000 kPa", "result": "1426.1 ± 3.8", "unit": "m/s"}, {"measurement": "speed of sound", "setting": "353.15 K, 3000 kPa", "result": "1431.2 ± 3.8", "unit": "m/s"}, {"measurement": "speed of sound", "setting": "353.15 K, 4000 kPa", "result": "1436.3 ± 3.8", "unit": "m/s"}, {"measurement": "speed of sound", "setting": "353.15 K, 5000 kPa", "result": "1441.4 ± 3.8", "unit": "m/s"}, {"measurement": "speed of sound", "setting": "353.15 K, 6000 kPa", "result": "1446.5 ± 3.8", "unit": "m/s"}, {"measurement": "speed of sound", "setting": "353.15 K, 7000 kPa", "result": "1451.7 ± 3.8", "unit": "m/s"}, {"measurement": "speed of sound", "setting": "353.15 K, 8000 kPa", "result": "1456.8 ± 3.8", "unit": "m/s"}, {"measurement": "speed of sound", "setting": "353.15 K, 9000 kPa", "result": "1463.1 ± 3.8", "unit": "m/s"}, {"measurement": "speed of sound", "setting": "353.15 K, 10000 kPa", "result": "1467 ± 3.8", "unit": "m/s"}, {"measurement": "speed of sound", "setting": "353.15 K, 11000 kPa", "result": "1473.3 ± 3.8", "unit": "m/s"}, {"measurement": "speed of sound", "setting": "353.15 K, 12000 kPa", "result": "1478.4 ± 3.8", "unit": "m/s"}, {"measurement": "speed of sound", "setting": "353.15 K, 13000 kPa", "result": "1482.4 ± 3.8", "unit": "m/s"}, {"measurement": "speed of sound", "setting": "353.15 K, 14000 kPa", "result": "1487.5 ± 3.8", "unit": "m/s"}, {"measurement": "speed of sound", "setting": "353.15 K, 15000 kPa", "result": "1492.6 ± 3.8", "unit": "m/s"}, {"measurement": "speed of sound", "setting": "353.15 K, 16000 kPa", "result": "1496.5 ± 3.8", "unit": "m/s"}, {"measurement": "speed of sound", "setting": "353.15 K, 17000 kPa", "result": "1500.4 ± 3.8", "unit": "m/s"}, {"measurement": "speed of sound", "setting": "353.15 K, 18000 kPa", "result": "1504.4 ± 3.8", "unit": "m/s"}, {"measurement": "speed of sound", "setting": "353.15 K, 19000 kPa", "result": "1509.5 ± 3.8", "unit": "m/s"}, {"measurement": "speed of sound", "setting": "353.15 K, 20000 kPa", "result": "1513.3 ± 3.8", "unit": "m/s"}]}
